Data reported in the NIST ThermoML archive (doi:10.1021/je050020m).

Assay: xn = mol fraction of the nth substance listed
Conditions: Liquid, Vibrating tube method

CCCCCCCCCC [decane] + O=C=O
Conditions | mass density [kg/m3]
332.94 K, 23010 kPa, x2 = 0.9663 | 775.39
332.94 K, 23014 kPa, x2 = 0.0551 | 721.3
332.94 K, 24016 kPa, x2 = 0.9663 | 784.64
332.94 K, 24025 kPa, x2 = 0.2369 | 730.17
332.94 K, 24026 kPa, x2 = 0.4536 | 743.58
332.94 K, 24057 kPa, x2 = 0.0551 | 722.11
332.94 K, 25006 kPa, x2 = 0.9663 | 793.1
332.94 K, 25022 kPa, x2 = 0.4536 | 744.71
332.94 K, 25028 kPa, x2 = 0.2369 | 731.08
332.94 K, 25048 kPa, x2 = 0.0551 | 722.92
342.79 K, 13528 kPa, x2 = 0.9663 | 503.61
342.79 K, 14029 kPa, x2 = 0.9663 | 528.33
342.79 K, 15026 kPa, x2 = 0.9663 | 569.49
342.79 K, 16019 kPa, x2 = 0.9663 | 603.24
342.79 K, 17025 kPa, x2 = 0.9663 | 631.6
342.79 K, 18035 kPa, x2 = 0.9663 | 657.54
342.79 K, 19000 kPa, x2 = 0.9663 | 674.01
342.79 K, 20022 kPa, x2 = 0.9663 | 691.29
342.79 K, 21024 kPa, x2 = 0.9663 | 706.16
342.79 K, 22022 kPa, x2 = 0.9663 | 719.34
342.79 K, 23022 kPa, x2 = 0.9663 | 731.24
342.79 K, 24017 kPa, x2 = 0.9663 | 741.98
342.79 K, 25006 kPa, x2 = 0.9663 | 751.96
342.84 K, 13020 kPa, x2 = 0.8114 | 721.51
342.84 K, 14001 kPa, x2 = 0.8114 | 726.31
342.84 K, 15022 kPa, x2 = 0.8114 | 730.92
342.84 K, 16041 kPa, x2 = 0.8114 | 735.26
342.84 K, 17013 kPa, x2 = 0.8114 | 739.14
342.84 K, 18018 kPa, x2 = 0.8114 | 742.96
342.84 K, 19020 kPa, x2 = 0.8114 | 746.57
342.84 K, 20008 kPa, x2 = 0.8114 | 749.98
342.84 K, 21023 kPa, x2 = 0.8114 | 753.35
342.84 K, 22003 kPa, x2 = 0.8114 | 756.46
342.84 K, 23041 kPa, x2 = 0.8114 | 759.67
342.84 K, 24026 kPa, x2 = 0.8114 | 762.58
342.84 K, 25034 kPa, x2 = 0.8114 | 765.48
342.86 K, 2043 kPa, x2 = 0.0551 | 694.82
342.86 K, 3006 kPa, x2 = 0.0551 | 695.92
342.86 K, 4043 kPa, x2 = 0.0551 | 696.93
342.86 K, 5044 kPa, x2 = 0.0551 | 697.98
342.86 K, 6046 kPa, x2 = 0.0551 | 699.02
342.86 K, 6984 kPa, x2 = 0.0551 | 699.98
342.86 K, 8003 kPa, x2 = 0.0551 | 701
342.86 K, 8999 kPa, x2 = 0.0551 | 702.09
342.86 K, 10007 kPa, x2 = 0.0551 | 702.98
342.86 K, 11044 kPa, x2 = 0.0551 | 703.97
342.86 K, 11996 kPa, x2 = 0.0551 | 704.89
342.86 K, 13021 kPa, x2 = 0.0551 | 705.84
342.86 K, 13997 kPa, x2 = 0.0551 | 706.74
342.86 K, 15043 kPa, x2 = 0.0551 | 707.69
342.86 K, 16022 kPa, x2 = 0.0551 | 708.54
342.86 K, 17001 kPa, x2 = 0.0551 | 709.54
342.86 K, 17984 kPa, x2 = 0.0551 | 710.28
342.86 K, 19042 kPa, x2 = 0.0551 | 711.19
342.86 K, 20017 kPa, x2 = 0.0551 | 712.03
342.86 K, 21054 kPa, x2 = 0.0551 | 713.1
342.86 K, 22022 kPa, x2 = 0.0551 | 713.72
342.86 K, 23029 kPa, x2 = 0.0551 | 714.55
342.86 K, 24018 kPa, x2 = 0.0551 | 715.37
342.86 K, 25025 kPa, x2 = 0.0551 | 716.21
342.87 K, 5031 kPa, x2 = 0.2369 | 702.48
342.87 K, 6026 kPa, x2 = 0.2369 | 703.7
342.87 K, 7027 kPa, x2 = 0.4536 | 711.28
342.87 K, 7029 kPa, x2 = 0.2369 | 704.93
342.87 K, 8006 kPa, x2 = 0.2369 | 706.09
342.87 K, 8024 kPa, x2 = 0.4536 | 712.92
342.87 K, 9027 kPa, x2 = 0.4536 | 714.5
